Laboratory results taken from US7763615B2, “Ecteinascidin analogs for use as antitumour agents” (priority 2001, dated 2010).
≈ marks a conversion by molar mass, not a printed value. Like-named read-outs stand apart in the source and are kept apart here.

Legend:
[1] = system: AML-12, normal mouse liver cells; conditions: 24 h
Description: (§2) In order to assess the cytotoxicity of the drugs to normal cells, we used 96 well plates plated at a density of 5000 cells per well (except for the FDC-P1 which were plated at 12,000 cells per well) with normal cell lines (ATCC, Table 1) maintained as per the directions of the ATCC: AML-12, normal mouse liver cells; NRK-52E, normal rat kidney cells; L8, normal rat skeletal muscle cells; FDC-P1, normal mouse myelogeous stem cells; and H9c2 (2-1), normal rat cardiac muscle cells. The cells in each plate were permitted to settle overnight before adding the test drug.
(§3) To each well (100 μl medium) 10 μl of drug in media was added at varying concentrations (1×10-10-0.01 mg/ml final concentration) and further incubated overnight at 37° C. with 5% CO2. After 24 h the following assays were performed. All experiments were repeated at least 3 times and were assayed in duplicate.
(§4) MTS assay (CellTiter 96 aqueous) was performed according to the manufacturer's (Promega) directions (for all cell types). Cell viability (mitochondrial activity) is determined via enzymatic conversion of the formazan substrate.

[2] = s9, 60 min, 1 μM
physchem [3] = conditions: pH 7.4, aqueous buffer, Solubility Dulbecco's PBS pH 7.4
in vitro = conditions: human, Caco-2
Excerpt: The intestinal epithelium permeability is a critical characteristic that determines the rate and extent of human absorption and ultimately the bioavailability of a drug candidate. Caco-2 permeability assay allows a rapid assessment of membrane permeability and thus helps to rank-order compounds in terms of their absorption potential.
The Caco-2 cell line is a human colon adenocarcinoma cell line that differentiates in culture and resembles the epithelial lining of the human small intestine.
The apparent permeability coefficients (Papp) was determined in the apical-to-basolateral (A-to-B) direction across the cell monolayers (TC-7 sub-clone of the Caco-2) cultured on polycarbonate membrane filters. Compounds were tested at 50 μM with at a final DMSO concentration of 1%. Samples were analyzed by HPLC-MS or HPLC-MS/MS.
The test compound was added to the apical side and the Papp was determined based on the rate of appearance of the test compound in the basolateral side after 2 h-incubation. Two reference compounds, propranolol (highly permeable) and ranitidine (poorly permeable), are tested in each assay as controls.

MB231 = assay: cells; assay type: cell-based; conditions: Homo sapiens; for CC50: read-out: LC50; for IC (TGI): read-out: TGI
In short: (§1)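 Human tumour cells seeded at 5×10^3 per well in RPMI 1640 10% FBS, attached 18 h, then exposed 48 h to samples from 10 to 10^−8 μg/ml in DMSO/EtOH/PBS. Growth measured by SRB staining after TCA fixation, OD 490 nm, triplicate wells; GI, TGI and LC derived.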

A498 = assay: cells; assay type: cell-based; conditions: Homo sapiens; for CC50: A498, 48 h, read-out: LC50; for GI50 / IC (TGI): A498, 48 hours exposure, SRB
In short: as §1

HT29 = assay: cells; assay type: cell-based; conditions: Homo sapiens, HT-29, 48 h; for GI50 / IC (TGI): HT29, 48 hours exposure, SRB; for CC50: read-out: LC50, HT29, 48 hours exposure, SRB
In short: as §1

MCF = assay: cells; assay type: cell-based; conditions: Homo sapiens; for CC50: read-out: LC50; for IC (TGI): read-out: TGI
In short: as §1

DU145 = assay: cells; assay type: cell-based; conditions: Homo sapiens, DU-145, 48 h; for GI50 / IC (TGI): DU145, 48 hours exposure, SRB; for CC50: read-out: LC50, DU145, 48 hours exposure, SRB
In short: as §1

A549 = assay: cells; assay type: cell-based; conditions: Homo sapiens, A549, 48 h; for GI50: read-out: GI50; for IC (TGI): read-out: TGI; for CC50: read-out: LC50, A549, 48 hours exposure, SRB
In short: as §1

SW-620 = assay: cells; assay type: cell-based; conditions: Homo sapiens; for CC50: read-out: LC50
In short: as §1

MEL-28 = assay: cells; assay type: cell-based; conditions: Homo sapiens, SK-MEL-28, 48 h; for GI50 / IC (TGI): MEL-28, 48 hours exposure, SRB; for CC50: read-out: LC50, MEL-28, 48 hours exposure, SRB
In short: as §1

[4] = system: FDC-P1, normal mouse myelogeous stem cells; conditions: 24 h
Description: as §2, §3, §4

[5] = system: NRK-52E, normal rat kidney cells; conditions: 24 h
CYP2D6 = CYP2D6 (Homo sapiens, UniProt P10635); assay: in vitro; conditions: CYP2D6 (% inhibition)
[6] = system: H9c2 (2-1), normal rat cardiac muscle cells; conditions: 24 h
Description: as §2, §3, §4

[7] = system: L8, normal rat skeletal muscle cells; conditions: 24 h
CYP3A4 = CYP3A4 (Homo sapiens, UniProt P08684); assay: in vitro; conditions: CYP3A4 (% inhibition)
physchem [8] = conditions: pH 7.4, log D n-Octanol-Dulbecco's PBS pH 7.4
(HEPG2) = conditions: human, 24 h, 30 μM
[9] = SW-620, 48 hours exposure, SRB, read-out: GI50

Chain of CYP3A4 (P08684 whole entry): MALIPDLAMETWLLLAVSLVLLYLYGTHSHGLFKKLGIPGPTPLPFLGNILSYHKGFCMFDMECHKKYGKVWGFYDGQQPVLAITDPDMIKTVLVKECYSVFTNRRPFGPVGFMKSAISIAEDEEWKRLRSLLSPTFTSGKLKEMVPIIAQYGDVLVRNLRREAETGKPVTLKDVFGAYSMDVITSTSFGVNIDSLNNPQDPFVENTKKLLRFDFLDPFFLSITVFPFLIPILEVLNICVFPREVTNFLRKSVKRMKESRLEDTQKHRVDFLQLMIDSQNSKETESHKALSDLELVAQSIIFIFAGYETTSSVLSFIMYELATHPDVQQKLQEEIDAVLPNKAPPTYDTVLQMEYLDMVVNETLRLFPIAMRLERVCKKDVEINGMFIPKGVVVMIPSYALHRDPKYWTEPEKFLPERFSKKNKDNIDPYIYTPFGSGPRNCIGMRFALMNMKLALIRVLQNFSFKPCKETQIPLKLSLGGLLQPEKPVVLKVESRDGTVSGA
Chain of CYP2D6 (P10635 whole entry): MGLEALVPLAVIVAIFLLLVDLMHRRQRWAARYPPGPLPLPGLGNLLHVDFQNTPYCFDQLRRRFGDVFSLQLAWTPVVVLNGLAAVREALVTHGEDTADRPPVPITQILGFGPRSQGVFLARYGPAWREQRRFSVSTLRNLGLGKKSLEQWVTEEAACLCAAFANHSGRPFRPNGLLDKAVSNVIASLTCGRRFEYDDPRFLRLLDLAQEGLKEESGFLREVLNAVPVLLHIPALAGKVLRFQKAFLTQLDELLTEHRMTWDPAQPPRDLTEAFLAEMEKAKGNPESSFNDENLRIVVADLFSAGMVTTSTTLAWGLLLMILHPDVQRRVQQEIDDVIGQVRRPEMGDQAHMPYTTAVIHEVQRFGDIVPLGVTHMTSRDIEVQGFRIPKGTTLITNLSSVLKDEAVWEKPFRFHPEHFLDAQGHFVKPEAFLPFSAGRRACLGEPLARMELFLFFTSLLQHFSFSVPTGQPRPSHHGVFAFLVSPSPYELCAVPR

| SMILES | Liver [1] | Human Liver S9 Metabolic Stability (% remaining) [2] | solubility (physchem [3]) | Papp A→B at 2 h, 50 μM (in vitro) | CC50 (MB231; 48 h) | GI50 (MB231; MB231, 48 hours exposure, SRB) | CC50 (A498) | GI50 (A498) | IC (TGI) (A498) | GI50 (HT29) | IC (TGI) (HT29) | CC50 (HT29) | CC50 (MCF; 48 h) | GI50 (MCF; MCF, 48 hours exposure, SRB) | GI50 (DU145) | IC (TGI) (DU145) | CC50 (DU145) | GI50 (A549; A549, 48 hours exposure, SRB) | CC50 (A549) | CC50 (SW-620; SW-620, 48 h) | other results |
| --- | --- | --- | --- | --- | --- | --- | --- | --- | --- | --- | --- | --- | --- | --- | --- | --- | --- | --- | --- | --- | --- |
| COc1ccc2[nH]c3c(c2c1)CCN[C@]31CS[C@@H]2c3c(OC(C)=O)c(C)c4c(c3[C@H](COCC1=O)N1C2[C@H]2c3c(cc(C)c(OC)c3O)C[C@@H]([C@@H]1O)N2C)OCO4 (some centres unmarked) [Compound 27] | 1.48E−08 | 7 % remaining | 2.99 µM (≈ 2.39 µg/mL) | < 1.18 ×10⁻⁶ cm/s | 12.7 nM | 0.255 nM | 1.27 nM | 0.255 nM | 0.51 nM | 0.255 nM | 0.764 nM | 1.15 nM | 11.5 nM | 0.255 nM | 0.0255 nM | 0.0892 nM | 3.82 nM | 0.255 nM | 6.37 nM | 1.15 nM | IC (TGI) (MB231; MB231, 48 hours exposure, SRB): 6.37 nM; IC (TGI) (MCF; 48 h): 1.27 nM; IC (TGI) (A549; A549, 48 hours exposure, SRB): 0.892 nM; IC (TGI) (SW-620; SW-620, 48 hours exposure, SRB): 0.637 nM; GI50 (SW-620; [9]): 0.255 nM; GI50 (MEL-28): 0.255 nM; IC (TGI) (MEL-28): 0.637 nM; CC50 (MEL-28): 1.27 nM; Myelo [4]: 1.75E−08; Kidney [5]: 1.01E−08; inhibition at 450 min, 10 µM (CYP2D6): 13%; Heart [6]: 9.93E−08; Skeletal [7]: 1.54E−08; inhibition at 30 min, 10 µM (CYP3A4): 53%; logD at 60 min (physchem [8]): > 5 |
| COc1c(C)cc2c(c1O)[C@@H]1C3[C@@H]4SC[C@]5(C(=O)COC[C@@H](c6c7c(c(C)c(OC(C)=O)c64)OCO7)N3[C@@H](O)[C@H](C2)N1C)c1[nH]c2ccc(O)cc2c1CCN5C (some centres unmarked) [Compound 33] | 1.05E−08 | 10 % remaining | 68.9 µM (≈ 55.1 µg/mL) | 7.77 ×10⁻⁶ cm/s | 12.7 nM | 0.255 nM | 1.27 nM | 0.255 nM | 0.51 nM | 0.255 nM | 0.764 nM | 1.15 nM | 11.5 nM | 1.02 nM | 0.382 nM | 0.892 nM | 3.82 nM | 0.382 nM | 5.1 nM | 10.2 nM | IC (TGI) (MB231; 48 h): 1.27 nM; IC (TGI) (MCF; MCF, 48 hours exposure, SRB): 2.55 nM; IC (TGI) (A549): 1.27 nM; IC (TGI) (SW-620; SW-620, 48 hours exposure, SRB): 1.15 nM; GI50 (SW-620; [9]): 0.255 nM; GI50 (MEL-28): 0.255 nM; IC (TGI) (MEL-28): 0.637 nM; CC50 (MEL-28): 1.15 nM; Cell Viability (% inhibition) ((HEPG2)): 32 % inhibition; Myelo [4]: 1.92E−08; Kidney [5]: 7.78E−09; inhibition at 450 min, 10 µM (CYP2D6): 28%; Heart [6]: 1.27E−06; Skeletal [7]: 1.41E−08; inhibition at 30 min, 10 µM (CYP3A4): 84%; logD at 60 min (physchem [8]): 3.5 |
| COc1ccc2c3c([nH]c2c1)[C@@]1(CS[C@@H]2c4c(OC(C)=O)c(C)c5c(c4[C@H](COCC1=O)N1C2[C@H]2c4c(cc(C)c(OC)c4O)C[C@@H]([C@@H]1O)N2C)OCO5)NCC3 (some centres unmarked) [Compound 34] | 2.55E−06 | 24 % remaining | 17.6 µM (≈ 14.1 µg/mL) | 5 ×10⁻⁶ cm/s | 127 nM | 3.82 nM | 63.7 nM | 3.82 nM | 12.7 nM | 7.64 nM | 2.54 nM | 11.5 nM | 127 nM | 5.1 nM | 2.55 nM | 3.82 nM | 10.2 nM | 5.1 nM | 89.2 nM | 102 nM | IC (TGI) (MB231; 48 h): 10.2 nM; IC (TGI) (MCF; MCF, 48 hours exposure, SRB): 25.5 nM; IC (TGI) (A549; A549, 48 hours exposure, SRB): 25.5 nM; GI50 (SW-620; SW-620, 48 h): 10.2 nM; IC (TGI) (SW-620; SW-620, 48 hours exposure, SRB): 38.2 nM; GI50 (MEL-28): 3.82 nM; IC (TGI) (MEL-28): 12.7 nM; CC50 (MEL-28): 63.7 nM; Cell Viability (% inhibition) ((HEPG2)): 45 % inhibition; Myelo [4]: 1.15E−05; Kidney [5]: 2.74E−07; inhibition at 450 min, 10 µM (CYP2D6): 28%; Heart [6]: 4.96E−07; Skeletal [7]: 1.48E−08; inhibition at 30 min, 10 µM (CYP3A4): 80%; logD at 60 min (physchem [8]): > 5 |
